US20100267561A1, “HERBICIDAL PYRIDAZINONE DERIVATIVES” (priority 2007, published 2010)

Key:
Assay type in all cases: in vivo
[1] = test system: ducksalad (Heteranthera limosa); test: Test B flooded paddy test plant response
In short: (§1)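 Paddy-water application to 2-leaf plants in pots held under 3 cm of flooding; response is a 0–100 visual control rating against controls after 13 to 15 days, and a dash marks a missing result.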

[2] = test system: umbrella sedge (Cyperus difformis); test: Test B flooded paddy test plant response
In short: as §1

[3] = test system: barnyardgrass (Echinochloa crus-galli); test: Test B flooded paddy test plant response
In short: as §1

rice (Oryza sativa) = test: Test B flooded paddy test plant response
In short: as §1

[4] = test system: Russian thistle (Salsola iberica); test: Test B pre-/postemergence plant response; settings: Preemergence; for Russian Thistle plant response rating: 8 g ai/ha
In short: (§2)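 Visual scoring from 0 (no effect) to 100 (complete control) against untreated controls was done 13 to 15 days after greenhouse treatment. Chemicals were formulated in a surfactant-containing non-phytotoxic solvent and applied to soil preemergence or to 1- to 4-leaf (2-18 cm) plants postemergence.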

[5] = test system: giant foxtail (Setaria faberii); test: Test B pre-/postemergence plant response; settings: for Foxtail, Giant plant response rating: 8 g ai/ha
In short: as §2

corn (Zea mays) = test: Test B pre-/postemergence plant response; settings: for Corn plant response rating: 8 g ai/ha
In short: as §2

[6] = test system: downy bromegrass (Bromus tectorum); test: Test B pre-/postemergence plant response; settings: for Bromegrass, Downy plant response rating: 8 g ai/ha
In short: as §2

[7] = test system: large crabgrass (Digitaria sanguinalis); test: Test B pre-/postemergence plant response; settings: for Crabgrass, Large plant response rating: 8 g ai/ha
In short: as §2

[8] = test system: woolly cupgrass (Eriochloa villosa); test: Test B pre-/postemergence plant response; settings: for Cupgrass, Woolly plant response rating: 8 g ai/ha
In short: as §2

wild oat (Avena fatua) = test: Test B pre-/postemergence plant response; settings: for Oat, Wild plant response rating: 8 g ai/ha
In short: as §2

[9] = test system: pigweed (Amaranthus retroflexus); test: Test B pre-/postemergence plant response; settings: for Pigweed plant response rating: 8 g ai/ha
In short: as §2

[10] = test system: green foxtail (Setaria viridis); test: Test B pre-/postemergence plant response; settings: for Foxtail, Green plant response rating: 8 g ai/ha
In short: as §2

[11] = test system: eastern black (E.B.) nightshade (Solanum ptycanthum); test: Test B pre-/postemergence plant response; settings: Preemergence; for Nightshade, E. B. plant response rating: 8 g ai/ha
In short: as §2

[12] = Flood (flooded paddy test), 62 g ai/ha, scale 0 to 100, 0 no effect, 100 complete control
[13] = Flood (flooded paddy test), 125 g ai/ha, scale 0 to 100, 0 no effect, 100 complete control
[14] = Flood (flooded paddy test), 250 g ai/ha, scale 0 to 100, 0 no effect, 100 complete control
[15] = Flood, 31 g ai/ha, scale 0 to 100
[16] = 16 g ai/ha, scale 0 to 100 (0 no effect, 100 complete control)
[17] = 31 g ai/ha, 0 to 100 scale, 0 no effect, 100 complete control
[18] = Postemergence, 16 g ai/ha, scale 0 to 100
[19] = Postemergence, 31 g ai/ha, scale 0 to 100, 0 no effect, 100 complete control
[20] = Postemergence, 62 g ai/ha, scale 0 to 100, 0 no effect, 100 complete control
[21] = Preemergence, 16 g ai/ha, scale 0 to 100 (0 no effect, 100 complete control)
[22] = Preemergence, 31 g ai/ha, 0 to 100 scale, 0 no effect, 100 complete control
[23] = Preemergence, 62 g ai/ha, scale 0 to 100

Cc1cc(-c2ccc(Cl)cc2)nn1-c1c(OC(=O)C(C)C)cnn(C)c1=O [Compound 34] was tested, and the “Plant response rating, Ducksalad” value [1, 12] was 0, the “Plant response rating, Ducksalad” value [1, 13] was 30 and the “Plant response rating, Ducksalad” value [1, 14] was 40. For the same compound, the “Plant response rating, Ducksalad” value [1, 15] was 0, the “Plant response rating, Sedge, Umbrella” value [2, 12] was 0 and the “Plant response rating, Sedge, Umbrella” value [2, 13] was 0. The “Plant response rating, Sedge, Umbrella” value [2, 14] was 0, the “Plant response rating, Sedge, Umbrella” value [2, 15] was 0 and the “Plant response rating, Barnyardgrass” value [3, 12] was 50. The “Plant response rating, Barnyardgrass” value [3, 13] was 100, the “Plant response rating, Barnyardgrass” value [3, 14] was 100 and the “Plant response rating, Barnyardgrass” value [3, 15] was 40. The “Plant response rating, Rice” value (rice (Oryza sativa); [12]) was 40, the “Plant response rating, Rice” value (rice (Oryza sativa); [13]) was 70 and the “Plant response rating, Rice” value (rice (Oryza sativa); [14]) was 80. The “Plant response rating, Rice” value (rice (Oryza sativa); [15]) was 0, the “Plant response rating, Russian Thistle” value [4, 16] was 0 and the “Plant response rating, Russian Thistle” value [4, 17] was 0. For the same compound, the “Plant response rating, Russian Thistle” value ([4]; 62 g ai/ha, scale 0 to 100) was 0, the “Russian Thistle plant response rating” value ([4]; scale 0 to 100) was 0 and the “Foxtail, Giant plant response rating” value ([5]; postemergence, 0-100 scale) was 80. For the same compound, the “Plant response rating, Foxtail, Giant” value [5, 18] was 90, the “Plant response rating, Foxtail, Giant” value [5, 19] was 100 and the “Plant response rating, Foxtail, Giant” value [5, 20] was 100. The “Plant response rating, Foxtail, Giant” value [5, 21] was 100, the “Plant response rating, Foxtail, Giant” value [5, 22] was 100 and the “Plant response rating, Foxtail, Giant” value [5, 23] was 100. For the same compound, the “Foxtail, Giant plant response rating” value ([5]; Preemergence, scale 0 to 100) was 98, the “Corn plant response rating” value (corn (Zea mays); postemergence, 0-100 scale) was 0 and the “Plant response rating, Corn” value (corn (Zea mays); [18]) was 98. The “Plant response rating, Corn” value (corn (Zea mays); [19]) was 98, the “Plant response rating, Corn” value (corn (Zea mays); [20]) was 98 and the “Plant response rating, Corn” value (corn (Zea mays); [21]) was 65. The “Plant response rating, Corn” value (corn (Zea mays); [22]) was 85, the “Plant response rating, Corn” value (corn (Zea mays); [23]) was 95 and the “Corn plant response rating” value (corn (Zea mays); Preemergence, scale 0 to 100) was 0. The “Bromegrass, Downy plant response rating” value ([6]; postemergence, 0-100 scale) was 20, the “Plant response rating, Bromegrass, Downy” value [6, 18] was 50 and the “Plant response rating, Bromegrass, Downy” value [6, 19] was 50. The “Plant response rating, Bromegrass, Downy” value [6, 20] was 80, the “Plant response rating, Bromegrass, Downy” value [6, 21] was 55 and the “Plant response rating, Bromegrass, Downy” value [6, 22] was 55. The “Plant response rating, Bromegrass, Downy” value [6, 23] was 80, the “Bromegrass, Downy plant response rating” value ([6]; Preemergence, scale 0 to 100) was 0 and the “Crabgrass, Large plant response rating” value ([7]; postemergence, 0-100 scale) was 70. The “Plant response rating, Crabgrass, Large” value [7, 18] was 80, the “Plant response rating, Crabgrass, Large” value [7, 19] was 95 and the “Plant response rating, Crabgrass, Large” value [7, 20] was 100. For the same compound, the “Plant response rating, Crabgrass, Large” value [7, 21] was 100, the “Plant response rating, Crabgrass, Large” value [7, 22] was 100 and the “Plant response rating, Crabgrass, Large” value [7, 23] was 100. The “Crabgrass, Large plant response rating” value ([7]; Preemergence, scale 0 to 100) was 100, the “Cupgrass, Woolly plant response rating” value ([8]; postemergence, 0-100 scale) was 75 and the “Plant response rating, Cupgrass, Woolly” value [8, 18] was 90. The “Plant response rating, Cupgrass, Woolly” value [8, 19] was 100, the “Plant response rating, Cupgrass, Woolly” value [8, 20] was 100 and the “Plant response rating, Cupgrass, Woolly” value [8, 21] was 90. For the same compound, the “Plant response rating, Cupgrass, Woolly” value [8, 22] was 95, the “Plant response rating, Cupgrass, Woolly” value [8, 23] was 95 and the “Cupgrass, Woolly plant response rating” value ([8]; Preemergence, scale 0 to 100) was 55. The “Oat, Wild plant response rating” value (wild oat (Avena fatua); postemergence, 0-100 scale) was 70, the “Plant response rating, Oat, Wild” value (wild oat (Avena fatua); [18]) was 90 and the “Plant response rating, Oat, Wild” value (wild oat (Avena fatua); [19]) was 95. For the same compound, the “Plant response rating, Oat, Wild” value (wild oat (Avena fatua); [20]) was 100, the “Plant response rating, Oat, Wild” value (wild oat (Avena fatua); [22]) was 85 and the “Plant response rating, Oat, Wild” value (wild oat (Avena fatua); [23]) was 90. The “Oat, Wild plant response rating” value (wild oat (Avena fatua); Preemergence, scale 0 to 100) was 40, the “Pigweed plant response rating” value ([9]; postemergence, 0-100 scale) was 0 and the “Plant response rating, Pigweed” value [9, 18] was 0. The “Plant response rating, Pigweed” value [9, 19] was 0, the “Plant response rating, Pigweed” value [9, 20] was 0 and the “Plant response rating, Pigweed” value [9, 21] was 0. The “Plant response rating, Pigweed” value [9, 22] was 0, the “Plant response rating, Pigweed” value [9, 23] was 0 and the “Pigweed plant response rating” value ([9]; Preemergence, scale 0 to 100) was 0. The “Foxtail, Green plant response rating” value ([10]; postemergence, 0-100 scale) was 60, the “Plant response rating, Foxtail, Green” value [10, 18] was 90 and the “Plant response rating, Foxtail, Green” value [10, 19] was 100. The “Plant response rating, Foxtail, Green” value [10, 20] was 100, the “Plant response rating, Foxtail, Green” value [10, 21] was 100 and the “Plant response rating, Foxtail, Green” value [10, 22] was 100. For the same compound, the “Plant response rating, Foxtail, Green” value [10, 23] was 100, the “Foxtail, Green plant response rating” value ([10]; Preemergence, scale 0 to 100) was 100 and the “Plant response rating, Nightshade, E. B.” value [11, 16] was 0. For the same compound, the “Plant response rating, Nightshade, E. B.” value [11, 17] was 0, the “Plant response rating, Nightshade, E. B.” value ([11]; 62 g ai/ha, scale 0 to 100) was 0 and the “Nightshade, E. B. plant response rating” value ([11]; scale 0 to 100) was 0.

Cn1ncc(O)c(-c2nn(-c3ccc(Cl)cc3)cc2Br)c1=O [Compound 31] was tested, and the “Plant response rating, Ducksalad” value [1, 12] was 0, the “Plant response rating, Ducksalad” value [1, 13] was 0 and the “Plant response rating, Ducksalad” value [1, 14] was 0. For the same compound, the “Plant response rating, Ducksalad” value [1, 15] was 0, the “Plant response rating, Sedge, Umbrella” value [2, 12] was 0 and the “Plant response rating, Sedge, Umbrella” value [2, 13] was 0. The “Plant response rating, Sedge, Umbrella” value [2, 14] was 0, the “Plant response rating, Sedge, Umbrella” value [2, 15] was 0 and the “Plant response rating, Barnyardgrass” value [3, 12] was 0. The “Plant response rating, Barnyardgrass” value [3, 13] was 0, the “Plant response rating, Barnyardgrass” value [3, 14] was 0 and the “Plant response rating, Barnyardgrass” value [3, 15] was 0. The “Plant response rating, Rice” value (rice (Oryza sativa); [12]) was 0, the “Plant response rating, Rice” value (rice (Oryza sativa); [13]) was 0 and the “Plant response rating, Rice” value (rice (Oryza sativa); [14]) was 0. The “Plant response rating, Rice” value (rice (Oryza sativa); [15]) was 0, the “Plant response rating, Russian Thistle” value [4, 16] was 0 and the “Plant response rating, Russian Thistle” value [4, 17] was 0. The “Plant response rating, Russian Thistle” value ([4]; 62 g ai/ha, scale 0 to 100) was 0, the “Russian Thistle plant response rating” value ([4]; scale 0 to 100) was 0 and the “Plant response rating, Foxtail, Giant” value [5, 21] was 90. The “Plant response rating, Foxtail, Giant” value [5, 22] was 100, the “Plant response rating, Foxtail, Giant” value [5, 23] was 100 and the “Foxtail, Giant plant response rating” value ([5]; Preemergence, scale 0 to 100) was 90. The “Plant response rating, Corn” value (corn (Zea mays); [21]) was 0, the “Plant response rating, Corn” value (corn (Zea mays); [22]) was 60 and the “Plant response rating, Corn” value (corn (Zea mays); [23]) was 90. The “Plant response rating, Bromegrass, Downy” value [6, 21] was 0, the “Plant response rating, Bromegrass, Downy” value [6, 22] was 65 and the “Plant response rating, Bromegrass, Downy” value [6, 23] was 85. The “Bromegrass, Downy plant response rating” value ([6]; Preemergence, scale 0 to 100) was 0, the “Plant response rating, Crabgrass, Large” value [7, 21] was 90 and the “Plant response rating, Crabgrass, Large” value [7, 22] was 100. For the same compound, the “Plant response rating, Crabgrass, Large” value [7, 23] was 100, the “Crabgrass, Large plant response rating” value ([7]; Preemergence, scale 0 to 100) was 80 and the “Plant response rating, Cupgrass, Woolly” value [8, 21] was 98. For the same compound, the “Plant response rating, Cupgrass, Woolly” value [8, 22] was 100, the “Plant response rating, Cupgrass, Woolly” value [8, 23] was 100 and the “Cupgrass, Woolly plant response rating” value ([8]; Preemergence, scale 0 to 100) was 70. For the same compound, the “Plant response rating, Oat, Wild” value (wild oat (Avena fatua); [21]) was 45, the “Plant response rating, Oat, Wild” value (wild oat (Avena fatua); [22]) was 70 and the “Plant response rating, Oat, Wild” value (wild oat (Avena fatua); [23]) was 90. The “Plant response rating, Pigweed” value [9, 21] was 0, the “Plant response rating, Pigweed” value [9, 22] was 0 and the “Plant response rating, Pigweed” value [9, 23] was 0. For the same compound, the “Pigweed plant response rating” value ([9]; Preemergence, scale 0 to 100) was 0, the “Plant response rating, Foxtail, Green” value [10, 21] was 98 and the “Plant response rating, Foxtail, Green” value [10, 22] was 100. For the same compound, the “Plant response rating, Foxtail, Green” value [10, 23] was 100, the “Foxtail, Green plant response rating” value ([10]; Preemergence, scale 0 to 100) was 65 and the “Plant response rating, Nightshade, E. B.” value [11, 16] was 0. For the same compound, the “Plant response rating, Nightshade, E. B.” value [11, 17] was 0, the “Plant response rating, Nightshade, E. B.” value ([11]; 62 g ai/ha, scale 0 to 100) was 0 and the “Nightshade, E. B. plant response rating” value ([11]; scale 0 to 100) was 0.
